Laboratory results reported in patent publication US10421779B2, “Carbazole compound having anti-virus activity” (priority 2016, dated 2019).

How the values were obtained:
Type in all cases: cell-based
[1] = system: HCV genotype 2a (HCV cell culture system, HCVcc); assay: HCVcc genotype 2a JFH1 (JFH 5a-Rluc) virus in Huh7.5.1 cells, luciferase assay; conditions: Hepatitis C virus, Huh-7.5.1, 72 h, HCV genotype 2a JFH 5a-Rluc, 3 days, read-out: Replicon EC50 2a type
Method: (§1) From human liver cells (Huh7.5.1 cell) infected by hepatitis C virus, the anti-virus effects by the compound of the present invention were measured. From HCV genotype 1 b (HCV replicon system), genotype 2a (HCV cell culture system, HCVcc), and genotype 3a, the EC50 values were measured.
In order to measure the EC50 value from HCV genotype 2a, a luciferase assay was used. A JFH1 clone (JFH 5a-Rluc) virus constructed to have a Renilla luciferase enzyme (Rluc) gene in NS5A protein was infected with Huh7.5.1 cell being a host cell, and then the EC50 value was measured by taking cells grown for 3 days by treating the experimental compound under various concentration conditions, and analyzing the activity degree of the luciferase.

[2] = system: hepatitis C virus mutant L31V of the NS5A region; assay: Efficacy on resistant mutant L31V; conditions: read-out: EC50 L31V
Source text: (§2) As a mutant resistant to hepatitis C virus, L31V and Y93H of the NS5A region, and double mutants thereof were applied.

[3] = system: HCV genotype 1 b (HCV replicon system); assay: HCV replicon system genotype 1b, Renilla luciferase activity; conditions: Hepatitis C virus, 72 h; HCV genotype 1b replicon, Rluc, 3 days; read-out: Replicon EC50 1b type
Method: as §1
In order to measure the EC50 value from HCV genotype 1 b, the degrees of HCV replication inhibitory activities of an experimental compound were measured. The EC50 value was measured by treating the experimental compound with the HCV replicon systems (genotype 1 b) having Renilla luciferase (Rluc) genes and genotype 1 b non-structure genes under various concentration conditions to compare the activity degree of the luciferase after 3 days elapsed time with that of the control.

[4] = system: hepatitis C virus double mutant L31V and Y93H of the NS5A region; assay: Efficacy on resistant double mutant (L31V and Y93H); conditions: read-out: EC50 Double mutant
Source text: as §2

[5] = system: hepatitis C virus mutant Y93H of the NS5A region; assay: Efficacy on resistant mutant Y93H; conditions: read-out: EC50 Y93H
Source text: as §2

[6] = system: HCV genotype 3a (HCV replicon system); assay: HCV replicon system genotype 3a, firefly luciferase activity; conditions: Hepatitis C virus, 72 h; HCV genotype 3a replicon, Fluc, 3 days; read-out: Replicon EC50 3a type
Method: as §1
In order to measure the EC50 value from genotype 3a, the value was measured through the luciferase activity. A HCV replicon system having firefly luciferase (Fluc) genes and genotype 3a non-structure genes was used. The HCV replicon system having the genes as described above was used to treat the experimental compound under various concentration conditions, and then 3 days later, the EC50 value was measured by comparing the luciferase activity with that of the control.

| Compound | EC50 [1] | EC50 [2] | EC50 [3] | EC50 [4] | EC50 [5] | EC50 [6] |
| --- | --- | --- | --- | --- | --- | --- |
| CCCC(c1ccccc1)n1c2cc(NC(=O)[C@@H]3CCCN3C(=O)[C@H](NC(=O)OC)c3ccccc3)ccc2c2ccc(NC(=O)[C@@H]3CCCN3C(=O)[C@H](NC(=O)OC)c3ccccc3)cc21 (stereo partly drawn) [Example 28, dimethyl ((1R,1′R)-((2S,2′S)-(((9-(1-phenylbutyl)-9H-carbazole-2,7-diyl)bis(azanediyl))bis(carbonyl))bis(pyrrolidine-2,1-diyl))bis(2-oxo-1-phenylethane-2,1-diyl))dicarbamate] | 1 to 10 nM | < 0.1 nM | 0.00452 nM |  |  |  |
| COC(=O)N[C@@H](C(=O)N1CCC[C@H]1C(=O)Nc1ccc2c3ccc(NC(=O)[C@@H]4CCCN4C(=O)[C@H](NC(=O)OC)c4ccccc4)cc3n(Cc3ccc(OC)cc3)c2c1)c1ccccc1 [Example 14, dimethyl ((1R,1′R)-((2S,2′S)-(((9-(4-methoxybenzyl)-9H-carbazole-2,7-diyl)bis(azanediyl))bis(carbonyl))bis(pyrrolidine-2,1-diyl))bis(2-oxo-1-phenylethane-2,1-diyl))dicarbamate] |  | 0.1 to 1 nM | 0.0203 nM | > 1000 nM | 100 to 1000 nM |  |
| COC(=O)N[C@H](C(=O)N1CCC[C@H]1c1nc(-c2ccc(-c3ccc(-c4c[nH]c([C@@H]5CCCN5C(=O)[C@@H](NC(=O)OC)C(C)C)n4)cc3)cc2)c[nH]1)C(C)C [BMS-790052, reference compound] |  | 0.1 to 1 nM |  | > 1000 nM | 1 to 10 nM |  |
| CCCCCCCCCC(c1ccccc1)n1c2cc(NC(=O)[C@@H]3CCCN3C(=O)[C@H](NC(=O)OC)c3ccccc3)ccc2c2ccc(NC(=O)[C@@H]3CCCN3C(=O)[C@H](NC(=O)OC)c3ccccc3)cc21 (stereo partly drawn) [Example 42, dimethyl ((1R,1′R)-((2S,2′S)-(((9-(1-phenyldecyl)-9H-carbazole-2,7-diyl)bis(azanediyl))bis(carbonyl))bis(pyrrolidine-2,1-diyl))bis(2-oxo-1-phenylethane-2,1-diyl))dicarbamate] | 10 to 100 nM | 0.1 to 1 nM | 0.00124 nM |  | 100 to 1000 nM | 0.0329 nM |
| COC(=O)N[C@@H](C(=O)N1CCC[C@H]1C(=O)Nc1ccc2c3ccc(NC(=O)[C@@H]4CCCN4C(=O)[C@H](NC(=O)OC)c4ccccc4)cc3n(C(C)c3ccccc3)c2c1)c1ccccc1 (stereo partly drawn) [Example 15, dimethyl ((1R,1′R)-((2S,2′S)-(((9-(1-phenylethyl)-9H-carbazole-2,7-diyl)bis(azanediyl))bis(carbonyl))bis(pyrrolidine-2,1-diyl))bis(2-oxo-1-phenylethane-2,1-diyl))dicarbamate] |  | < 0.1 nM | 0.0157 nM | > 1000 nM | 10 to 100 nM |  |
| CCCCCCOc1ccc(Cn2c3cc(NC(=O)[C@@H]4CCCN4C(=O)[C@H](NC(=O)OC)c4ccccc4)ccc3c3ccc(NC(=O)[C@@H]4CCCN4C(=O)[C@H](NC(=O)OC)c4ccccc4)cc32)cc1 [Example 31, dimethyl ((1R,1′R)-((2S,2′S)-(((9-(4-(hexyloxy)benzyl)-9H-carbonyl-2,7-diyl)bis(azanediyl))bis(carbonyl))bis(pyrrolidine-2,1-diyl))bis(2-oxo-1-phenylethane-2,1-diyl))dicarbamate] | 1 to 10 nM | < 0.1 nM | ~0.01 nM |  | 10 to 100 nM | ~0.01 nM |
| COC(=O)N[C@@H](C(=O)N1CCC[C@H]1C(=O)Nc1ccc2c3ccc(NC(=O)[C@@H]4CCCN4C(=O)[C@H](NC(=O)OC)c4ccccc4)cc3n(Cc3ccccc3)c2c1)c1ccccc1 [Example 13, dimethyl ((1R,1′R)-((2S,2′S)-(((9-benzyl-9H-carbazole-2,7-diyl)bis(azanediyl))bis(carbonyl))bis(pyrrolidine-2,1-diyl))bis(2-oxo-1-phenylethane-2,1-diyl))dicarbamate] |  | 0.1 to 1 nM | 0.0246 nM | > 1000 nM | 100 to 1000 nM |  |
| COC(=O)N[C@@H](C(=O)N1CCC[C@H]1C(=O)Nc1ccc2c3ccc(NC(=O)[C@@H]4CCCN4C(=O)[C@H](NC(=O)OC)c4ccccc4)cc3n(CC3CC3)c2c1)c1ccccc1 [Example 16, dimethyl ((1R,1′R)-((2S,2′S)-(((9-(cyclopropylmethyl)-9H-carbazole-2,7-diyl)bis(azanediyl))bis(carbonyl))bis(pyrrolidine-2,1-diyl))bis(2-oxo-1-phenylethane-2,1-diyl))dicarbamate] |  | 1 to 10 nM | 0.0182 nM | > 1000 nM | 10 to 100 nM |  |
| COC(=O)N[C@@H](C(=O)N1CCC[C@H]1C(=O)Nc1ccc2c3ccc(NC(=O)[C@@H]4CCCN4C(=O)[C@H](NC(=O)OC)c4ccccc4)cc3n(CCCCCCCCCCN3CCOCC3)c2c1)c1ccccc1 [Example 34, dimethyl ((1R,1′R)-((2S,2′S)-(((9-(10-morpholinodecyl)-9H-carbazole-2,7-diyl)bis(azanediyl))bis(carbonyl))bis(pyrrolidine-2,1-diyl))bis(2-oxo-1-phenylethane-2,1-diyl))carbamate] | 1 to 10 nM | < 0.1 nM | 0.01 to 0.1 nM |  | 100 to 1000 nM | 0.01 to 0.1 nM |
| CCCCCCCCn1c2cc(NC(=O)[C@@H]3CCCN3C(=O)[C@H](NC(=O)OC)c3ccccc3)ccc2c2ccc(NC(=O)[C@@H]3CCCN3C(=O)[C@H](NC(=O)OC)c3ccccc3)cc21 [Example 26, dimethyl ((1R,1′R)-((2S,2′S)-(((9-octyl-9H-carbazole-2,7-diyl)bis(azanediyl))bis(carbonyl))bis(pyrrolidine-2,1-diyl))bis(2-oxo-1-phenylethane-2,1-diyl))dicarbamate] | 10 to 100 nM | 1 to 10 nM | 0.00792 nM |  |  |  |
| COC(=O)N[C@@H](C(=O)N1CCC[C@H]1C(=O)Nc1ccc2c3ccc(NC(=O)[C@@H]4CCCN4C(=O)[C@H](NC(=O)OC)c4ccccc4)cc3n(Cc3cccc(OC4CCCC4)c3)c2c1)c1ccccc1 [Example 39, dimethyl ((1R,1′R)-((2S,2′S)-(((9-(3-(cyclopentyloxy)benzyl)-9H-carbazole-2,7-diyl)bis(azanediyl))bis(carbonyl))bis(pyrrolidine-2,1-diyl))bis(2-oxo-1-phenylethane-2,1-diyl))dicarbamate] |  | 0.1 to 1 nM | 0.00113 nM |  | 100 to 1000 nM | 0.00638 nM |
| CCCCCCCCCCCCn1c2cc(NC(=O)[C@@H]3CCCN3C(=O)[C@H](NC(=O)OC)c3ccccc3)ccc2c2ccc(NC(=O)[C@@H]3CCCN3C(=O)[C@H](NC(=O)OC)c3ccccc3)cc21 [Example 27, dimethyl ((1R,1′R)-((2S,2′S)-(((9-dodecyl-9H-carbazole-2,7-diyl)bis(azanediyl))bis(carbonyl))bis(pyrrolidine-2,1-diyl))bis(2-oxo-1-phenylethane-2,1-diyl))dicarbamate] | 10 to 100 nM | 0.1 to 1 nM | 0.00185 nM |  |  |  |
| CCCCOc1ccc(Cn2c3cc(NC(=O)[C@@H]4CCCN4C(=O)[C@H](NC(=O)OC)c4ccccc4)ccc3c3ccc(NC(=O)[C@@H]4CCCN4C(=O)[C@H](NC(=O)OC)c4ccccc4)cc32)cc1 [Example 36, dimethyl ((1R,1′R)-((2S,2′S)-(((9-(4-butoxybenzyl)-9H-carbazole-2,7-diyl)bis(azanediyl))bis(carbonyl))bis(pyrrolidine-2,1-diyl))bis(2-oxo-1-phenylethane-2,1-diyl))dicarbamate] |  | 0.1 to 1 nM | 0.00326 nM |  | 100 to 1000 nM | 0.0126 nM |
| COC(=O)N[C@@H](C(=O)N1CCC[C@H]1C(=O)Nc1ccc2c3ccc(NC(=O)[C@@H]4CCCN4C(=O)[C@H](NC(=O)OC)c4ccccc4)cc3n(Cc3cccc(C(F)(F)F)c3)c2c1)c1ccccc1 [Example 44, dimethyl ((1R,1′R)-((2S,2′S)-(((9-(3-(trifluoromethyl)benzyl)-9H-carbazole-2,7-diyl)bis(azanediyl))bis(carbonyl))bis(pyrrolidine-2,1-diyl))bis(2-oxo-1-phenylethane-2,1-diyl))dicarbamate] | > 10 nM |  | ~0.01 nM |  |  | 0.01 to 0.1 nM |
| COCCOc1cccc(Cn2c3cc(NC(=O)[C@@H]4CCCN4C(=O)[C@H](NC(=O)OC)c4ccccc4)ccc3c3ccc(NC(=O)[C@@H]4CCCN4C(=O)[C@H](NC(=O)OC)c4ccccc4)cc32)c1 [Example 41, dimethyl ((1R,1′R)-((2S,2′S)-(((9-(3-(2-methoxyethoxy)benzyl)-9H-carbazole-2,7-diyl)bis(azanediyl))bis(carbonyl))bis(pyrrolidine-2,1-diyl))bis(2-oxo-1-phenylethane-2,1-diyl))dicarbamate] |  | 0.1 to 1 nM | 0.00965 nM |  | > 1000 nM | 0.0419 nM |
